In brackets after ≈: the same amount, converted by molar mass. Read-outs that look alike come from different tables or passages of the source. Ends that are not written are not given here.
Experiments:
[1] = system: Methicillin-resistant S. aureus ATCC 43300; experiment: MIC by microbroth dilution method, MRSA; format: cell-based; settings: broth-micro dilution
Method: (§1) Bacterial strains: Methicillin-resistant S. aureus (abbreviated […]) ATCC 43300 was commercially purchased from Oxoid S.p.A., Milan, Italy. Methicillin-resistant S. epidermidis (abbreviated MRSE) is a clinical strain from the Institute of Infectious Diseases and Public Health, University of Ancona, Italy.
(§2) Bacterial strain antibiotic suscepdbilty analysis: The antimicrobial susceptibilities of the bacterial strains were determined by using the microbroth dilution method, according to the procedures outlined by the National Committee for Clinical Laboratory Standards (U.S.A.). The minimal inhibitory concentration (MIC) was taken as the lowest antibiotic concentration at which observable growth was inhibited. Experiments were performed in triplicate.
(§3) Statistical analysis: MIC values are presented as the geometric mean of three separate experiments. […] Significance was accepted when the P value was less than/equal to 0.05.

[2] = system: Methicillin-resistant S. epidermidis clinical strain; experiment: MIC by microbroth dilution method, MRSE; format: cell-based; settings: broth-micro dilution
Method: as §1, §2, §3

[3] = system: methicillin-resistant S. aureus (MRSA); format: in vivo; settings: rats, MRSA challenge
Source text: (§4) Animals: Adult male Wistar rats, 250-300 gr (I.N.R.C.A. I.R.R.C.S. animal facility, Ancona) were used, with 15 animals per experimental group.
(§5) Mammalian graft infection model: Rats were anesthetized and their hair of the back was shaved and the skin cleansed with 10 percent povidone-iodine solution. One subcutaneous pocket was made on each side of the median line by a 1.5 cm incision. Aseptically, 1 square centimeter sterile albumin-sealed Dacron™ grafts (Albograft™, Sorin Biomedica Cardio, S.p.A., Saluggia VC, Italy) were implanted into the pockets. Prior to implantation grafts were soaked for 20 minutes in sterile antibiotic solutions. The pockets were closed by means of skin clips and saline solution (1 mL) containing methicillin-resistant S. aureus (MRSA) or S. epidermidis (MRSE) at a concentration of 2×10^7 colony-forming units (CFU)/mL was inoculated onto the graft surface by using a tuberculin syringe to create a subcutaneous fluid-filled pocket. The animals were returned to individual cages and thoroughly examined daily. All grafts were explanted at 7 days following implantation.
(§6) Assessment of the infection: The explanted grafts were placed in sterile tubes, washed in sterile saline solution, placed in tubes containing 10 mL of phosphate-buffered saline solution and sonicated for 5 minutes to remove the adherent bacteria from the grafts (Balaban, N. et al, 2003. Kidney Int. 63: 340-345). Quantitation of viable staphylococci was performed by culturing serial dilutions (0.1 mL) of the bacterial suspensions on blood agar plates at 37 degrees centigrade for 48 hours. The organisms were quantitated by counting the number of colony-forming units (CFUs) per plate. The limit of detection for this method was approximately 10 CFU/mL.
as §3

[4] = system: methicillin-resistant S. epidermidis (MRSE); format: in vivo; settings: rats, MRSE challenge
Source text: as §4, §5, §6, §3

S. aureus cells = experiment: Bacterial growth (CFU) of S. aureus culture grown with peptides; format: cell-based; settings: in-vitro culture grown 2.5 hours with peptide, FIG. 5a
Method: (§7) RNAIII synthesis and bacterial growth: Cultures of S. aureus (20 million cells in a volume of 30 microliters) containing an expression construct for expression of the fusion protein maiii::blaZ (described in Gov, Y. et al., 2001. Peptides. 22: 1609-20 were grown for 2.5 hours with 5 microliters peptide solution or control buffer. A 5 microliter sample was taken from the cultures, diluted in saline, and streaked on LB agar plates to quantitate CFUs. The remainder of the cultures were used to determine RNAIII synthesis (beta-lactamase activity). This was performed by adding a substrate of beta-lactamase (nitrocefin), and determining OD 490 nm/OD 650 nm, as previously described (Gov, Y. et al., 2001. Peptides. 22: 1609-20).

RNAIII synthesis = RNAIII synthesis (beta-lactamase reporter, nitrocefin); format: cell-based, S. aureus; settings: FIG. 5b; at high peptide concentrations mostly attributable to cell death
Method: as §7

[5] = graft pre-soaked with 5 micrograms/mL rifampin alone
[6] = graft pre-soaked with 5 micrograms/mL rifampin alone, 7 days
[7] = graft presoaked in 10 micrograms/mL peptide, explanted at 7 days
[8] = graft presoaked in 20 micrograms/mL peptide, explanted at 7 days
[9] = graft presoaked in 50 micrograms/mL peptide, explanted at 7 days

CO[C@H]1/C=C/O[C@@]2(C)Oc3c(C)c(O)c4c(O)c(c(/C=N/N5CCN(C)CC5)c(O)c4c3C2=O)NC(=O)/C(C)=C\C=C\[C@H](C)[C@H](O)[C@@H](C)[C@@H](O)[C@@H](C)[C@H](OC(C)=O)[C@@H]1C [rifampin]
MIC ([1]; Staphylococcus aureus, read-out: MIC): 0.5 µg/mL (≈ 0.608 µM)
MIC ([2]; Staphylococcus epidermidis, read-out: MIC): 0.5 µg/mL (≈ 0.608 µM)
Reduction in bacterial CFU compared to control [3, 5]: about 50%
Graft bacterial load (quantitative culture) [3, 6]: 6.7×10^3±9.1×10^2 CFU/mL
Reduction in numbers of PFUs compared to control [4, 5]: about 50%
Graft bacterial load (quantitative culture) [4, 6]: 8.8×10^2±3.0×10^2 CFU/mL

YSPWTNF (YSPWTNF-NH2) [RIP]
MIC [1]: > 128 micrograms/mL
Bactericidal activity (CFU counts) (S. aureus cells): virtually inactive
Inhibition of RNAIII synthesis (RNAIII synthesis): efficiently inhibited RNAIII synthesis
MIC [2]: > 128 micrograms/mL
Graft bacterial load (quantitative culture) [3, 7]: 4.1×10^4±7.1×10^3 CFU/ml
Graft bacterial load (quantitative culture) [3, 8]: 5.9×10^3±1.7×10^3 CFU/ml
Graft bacterial load (quantitative culture) [3, 9]: 8.4×10^1±3.6×10^1 CFU/ml
Graft bacterial load (quantitative culture) [4, 7]: 6.9×10^3±1.9×10^3 CFU/ml
Graft bacterial load (quantitative culture) [4, 8]: 8.5×10^2±2.0×10^2 CFU/ml
Graft bacterial load (quantitative culture) [4, 9]: 3.9×10^1±1.6×10^1 CFU/ml

From US20060121083A1 (priority 2003, published 2006)
